In patent US20210030735A1 (Tesaro, Inc., priority 2018, published 2021):
≈ marks a conversion by molar mass, not a printed value. Where two headings read alike, the source gives them in different places.

Key:
[1] = drug substance
Experimental: The particle size analyzer can determine particle size using low-angle laser light scattering and calculates results in % volume based on equivalent spheres. Volume distributions for the D10, D50, D90, D4,3, and D3,2 can be determined. The suspension is added to the tank until the obscuration is in range, targeting a 10% obscuration. Measurements are taken once the obscuration remains consistent.
These batches were divided into sub-lots at various time intervals and each sub-lot was analyzed for content uniformity. The batches used are described in Table 12.

[2] = test system: platinum-sensitive recurrent epithelial ovarian, fallopian tube, or primary peritoneal cancer; conditions: for PFS Median: niraparib 300 mg QD; for HR, CFI / HR, TFST: niraparib versus placebo
Description: All patients had received at least two prior platinum-containing regimens and were in response (complete or partial) to their most recent platinum-based regimen. Eligible patients were assigned to one of two cohorts based on the results of a germline BRCA mutation test. […] Randomization occurred within 8 weeks of the last dose of the most recent platinum-containing regimen. […] Clinic visits occurred each cycle (4 weeks ±3 days). […] Prior to unblinding of the study, tumors of patients randomized to the non-gBRCAmut cohort were tested for the presence of homologous recombination deficiency (HRD) using the Myriad myChoice® HRD test, which evaluates three independent biomarkers of tumor genome instability: loss of heterozygosity, telomeric allelic imbalance, and large-scale state transitions. Tumors with homologous recombination deficiencies and those with somatic BRCA mutations were defined as HRD positive (HRDpos). The primary efficacy analysis for PFS was prospectively defined and assessed for the gBRCAmut cohort. The primary efficacy analysis for PFS was prospectively defined and assessed for the non-gBRCAmut cohort with a hierarchical testing schema. In the first step, PFS was assessed in the group of patients with HRDpos tumors and if significant, PFS was assessed in the overall non-gBRCAmut cohort. Secondary efficacy endpoints included chemotherapy-free interval (CFI), time to first subsequent therapy (TFST), PFS after the first subsequent therapy (PFS2), time to second subsequent therapy (TSST) and OS (overall survival).

in vivo = conditions: tumor, 50 mg/kg
beagle dogs = conditions: dog, in vivo, 1 month
juvenile rats = conditions: rat, in vivo, 1 month
[3] = test system: recurrent solid tumors that exhibit a BRCAness mutational signature; conditions: oral niraparib in combination with TSR-042, patients between 6 months and 18 years

## Cc1ccc(S(=O)(=O)O)cc1.NC(=O)c1cccc2cn(-c3ccc([C@@H]4CCCNC4)cc3)nc12 [niraparib tosylate monohydrate, 2-{4-[(3S)-piperidin-3-yl]phenyl}-2H-indazole 7-carboxamide 4-methylbenzenesulfonate hydrate (1:1:1)]
[1]
  bulk density: 0.34-0.45 g/cc
  tapped density: 0.53-0.66 g/cc

## NC(=O)c1cccc2cn(-c3ccc([C@@H]4CCCNC4)cc3)nc12 [Niraparib, niraparib]
physchem
  pKa: 9.95
physchem; aqueous media across the physiological pH range, aqueous buffer
  solubility: 700 to 1100 µg/mL (≈ 2180 to 3430 µM)
[2]; HRDpos group of the non-gBRCAmut cohort, N = 106
  PFS Median: 12.9 months
[2]; gBRCAmut cohort
  Median CFI (chemotherapy-free interval): 22.8 months
  Median TFST (time to first subsequent therapy): 21.0 months
  HR, CFI: 0.26
  HR, TFST: 0.31
[2]; gBRCAmut cohort, N = 138
  PFS Median: 21.0 months
[2]; non-gBRCAmut cohort
  Median CFI (chemotherapy-free interval): 12.7 months
  Median TFST (time to first subsequent therapy): 11.8 months
  HR, CFI: 0.50
  HR, TFST: 0.55
[2]; overall non-gBRCAmut cohort, N = 234
  PFS Median: 9.3 months
Tumor models; 50 mg/kg, daily dosing
  tumor regression: tumor regression
Tumor models; dose of 75 mg/kg, same model
  tumor regression: did not result in tumor regression
In vivo
  concentration at 6 h: 4570 ng/mL
Beagle dogs
  no-observed-adverse-effect-level: 6 mg/kg/day
Juvenile rats
  no-observed-adverse-effect-level: 10 mg/kg/day
[3]
  treatment of pediatric cancer patients, result of the study: can be used successfully
